Source: PMC6044835, “Expression, Purification, and Biochemical Characterization of the Flavocytochrome P450 CYP505A30 from Myceliophthora thermophila” (ACS Omega, 2017)
Several values for one entry are separate records, joined by “and”; a condition that tells them apart may be missing. Equal values may be shown once. Read-outs that look alike come from different tables or passages of the source.

Experiments:
CYP505A30 [1] = target: T1, CYP505A30 (Thermothelomyces thermophilus, UniProt G2QDZ3); experiment: Steady-state fatty acid-dependent NADPH oxidation
CYP505A30 [2] = target: T1, CYP505A30; experiment: UV–visible spectral binding titration with intact CYP505A30; conditions: for HS (%): extent of HS heme iron accumulated, intact CYP505A30, estimated to nearest 5%
CYP505A30 heme domain [3] = target: T2, CYP505A30 heme domain (Thermothelomyces thermophilus, UniProt G2QDZ3); experiment: UV–visible spectral binding titration with CYP505A30 heme domain; conditions: for HS (%): extent of HS heme iron accumulated, heme domain, estimated to nearest 5%
[4] = target: Myceliophthora thermophila flavocytochrome P450 CYP505A30 (P450-CPR fusion enzyme), intact (Myceliophthora thermophila); experiment: SEC-MALS; 5 mg protein samples in buffer A (50 mM potassium phosphate, pH 7.0) containing 200 mM KCl; integrated Superdex 200 gel filtration followed at once by a DAWN EOS MALLS detector; monomer and dimer of the intact enzyme
CYP505A30 [5] = target: T1, CYP505A30; experiment: UV-visible spectral binding titration of imidazole-type inhibitors (Soret red shift by distal heme iron coordination) to intact CYP505A30 in 50 mM potassium phosphate pH 7.0 (25 °C stated for the substrate titrations), hyperbolic fit for bifonazole.; design: gene MYCTH_101224; intact CYP505A30, amino acids 1-1080, N-terminal hexahistidine tag (pET15b), expressed in E. coli; conditions: read-out: KD values (azole/imidazole inhibitors)
Source text: Figure 5 UV–visible spectroscopic analysis of CYP505A30 and its heme domain. […] The sodium dithionite-reduced ferrous form (dotted line) has its Soret maximum at 411 nm and a single visible region absorbance band at 546 nm. The ferrous, CO-bound form (thin solid line) has its Soret maximum at 450 nm and a visible band at 550 nm. The ferric heme NO-bound form (dashed line) has a Soret maximum at 434 nm and visible region bands at 543 and 573 nm. […] For clarity, the visible region is also shown at 5× magnification. […] The substrate-free heme domain (4.9 μM) is shown with a thick solid line. […] Each ΔAbs point is derived from the value of the difference peak absorbance maximum (at 388 nm) minus the difference trough absorbance minimum (at 417 nm). […]
The wavelengths of the absorbance minimum and maximum were identified from the difference spectra, and a maximal induced absorbance change (ΔAmax) at each point in the titration was determined by subtracting the absorbance at the wavelength minimum from that at the absorbance maximum, using the same wavelength pair throughout each titration. ΔAmax values were then plotted against ligand concentration, and data were fitted using either a hyperbolic (Michaelis–Menten) function or the Morrison function for tight-binding ligands, to determine dissociation constants (KD values), as described previously.[38],[52]

CYP505A30 [6] = target: T1, CYP505A30
CYP505A30 heme domain [7] = target: T2, CYP505A30 heme domain
[8] = substrate: CCCCC/C=C\C/C=C\C/C=C\C/C=C\CCCC(=O)O; experiment: purified protein, by the assay type; conditions: other: fatty acid-induced NADPH oxidation, 25 °C
[9] = substrate: CCCCCCCCCCCC(=O)O; experiment: purified protein, by the assay type; conditions: other: fatty acid-induced NADPH oxidation, 25 °C
[10] = substrate: CCCCCCCCCCCCCC(=O)O; experiment: purified protein, by the assay type; conditions: other: fatty acid-induced NADPH oxidation, 25 °C
[11] = substrate: CCCCCCCCCCCCCCC(=O)O; experiment: purified protein, by the assay type; conditions: other: fatty acid-induced NADPH oxidation, 25 °C
[12] = fatty acid-dependent NADPH oxidation
[13] = KD, substrate binding to intact CYP505A30, heme absorbance change, 25 °C

For `CCCCCCCCCCCCCCC(=O)O` [pentadecanoic acid], the “KD (Michaelis–Menten fit of steady-state NADPH oxidation)” value (CYP505A30 [1]; [12]) was 7.8 µM, the kcat (CYP505A30 [1]; [12]) was roughly 450 min^–1 and the Kd (CYP505A30 [2]) was 4.4 ± 0.6 µM. The “HS (%)” value (CYP505A30 [2]) was 85%, the Kd (CYP505A30 heme domain [3]) was 1.1 ± 0.3 µM and the “HS (%)” value (CYP505A30 heme domain [3]) was 90%.

“Myceliophthora thermophila flavocytochrome P450 CYP505A30 (P450-CPR fusion enzyme), intact” gave a stoichiometry N [4] of 2.

In the case of `CCCCCCCCCCCCCCCC(=O)O` [hexadecanoic acid], the Kd (CYP505A30 [2]; [13]) is reported as 10.5 ± 0.2 µM, the “HS (%)” value (CYP505A30 [2]) is reported as 80% and the Kd (CYP505A30 heme domain [3]) is reported as 1 ± 0.4 µM. The “HS (%)” value (CYP505A30 heme domain [3]) was 55%.

`CCCCCCCCCCCCCCCC(=O)NCC(=O)O` [N-palmitoylglycine] was tested, and the “HS (%)” value (CYP505A30 [2]) was 95% and the “HS (%)” value (CYP505A30 heme domain [3]) was 75%.

For `c1c[nH]cn1` [imidazole], the Kd (CYP505A30 [5]) was 723 µM.

`CCCCCCCCCCCCCCCCCC(=O)O` [octadecanoic acid] was tested, and the Kd (CYP505A30 [2]) was 11.9 ± 1 µM, the “HS (%)” value (CYP505A30 [2]) was 15% and the Kd (CYP505A30 heme domain [3]) was 5 ± 0.7 µM. For the same molecule, the “HS (%)” value (CYP505A30 heme domain [3]) was 10%.

`CCCCCCCCCCCCC(=O)O` [tridecanoic acid] was tested, and the “HS (%)” value (CYP505A30 [6]) was 65%, the “HS (%)” value (CYP505A30 heme domain [7]) was 30% and the kcat (CYP505A30 [1]; fatty acid-induced NADPH oxidation, 25 °C, 200 μM NADPH) was 5.0 ± 0.3 s^–1. It also gave a Kd (CYP505A30 [2]; [13]) of 2.7 ± 0.3 µM and a Kd (CYP505A30 heme domain [3]) of 4.8 ± 0.3 µM.

`c1ccc(-c2ccc(C(c3ccccc3)n3ccnc3)cc2)cc1` (stereo not drawn) [bifonazole] was tested, and the Kd (CYP505A30 [2]; KD) was 69 µM and 69.1 µM.

B1: CYP505A30 (Thermothelomyces thermophilus ATCC 42464) (protein)
chain: MADKTTETVPIPGPPGLPLVGNALAFDSELPLRTFQEFAEEYGEIYRLTLPTGTTLVVSSQALVHELCDDKRFKKPVAAALAEVRNGVNDGLFTAREEEPNWGIAHRILMPAFGPASIQGMFTEMHEIASQLALKWARHGPDTPIFVTDDFTRLTLDTLALCTMNFRFNSYYHDELHPFINAMGNFLTESGARAMRPAITSIFHQAANRKYWEDIEVLRKTAQGVLDTRRKHPTNRKDLLSAMLDGVDAKTGQKLSDSSIIDNLITFLIAGHETTSGLLSFAFYLLIKHQDAYRKAQEEVDRVIGKGPIKVEHIKKLPYIAAVLRETLRLCPTIPIINRAAKQDEVIGGKYAVAKDQRLALLLAQSHLDPAVYGETAKQFIPERMLDENFERLNREYPDCWKPFGTGMRACIGRPFAWQEAVLVMAMLLQNFDFVLHDPYYELHYKQTLTTKPKDFYMRAILRDGLTATELEHRLAGNAASVARSGGGGGGPSKPTAQKTSPAEAKPMSIFYGSNTGTCESLAQRLATDAASHGYAAAAVEPLDTATEKLPTDRPVVIITASFEGQPPDNAAKFCGWLKNLEGDELKNVSYAVFGCGHHDWSQTFHRIPKLVHQTMKAHGASPICDEGLTDVAEGNMFTDFEQWEDDVFWPAVRARYGAAGAVAETEDAPGSDGLNIHFSSPRSSTLRQDVREATVVGEALLTAPDAPPKKHIEVQLPDGATYKVGDYLAVLPVNSKESIGRVMRKFQLSWDSHVTIASDRWTALPTGTPVPAYDVLGSYVELSQPATKRGILRLADAAEDEATKAELQKLAGDLYTSEISLKRASVLDLLDRFPSISLPFGTFLSLLPPIRPRQYSISSSPLNDPSRATLTYSLLDSPSLANPSRRFVGVATSYLSSLVRGDKLLVSVRPTHTAFRLPDEDKMGETAIICVGAGSGLAPFRGFIQERAALLAKGTQLAAALLFYGCRSPEKDDLYRDEFDKWQESGAVDVRRAFSRVDSDDTEARGCRHVQDRLWHDREEVKALWDRGARVYVCGSRQVGEGVKTAMGRIVLGEEDAEDAISKWYETVRNDRYATDVFD
Molecule B1 has a Km [8] of 9.2 ± 0.5 µM, a kcat [8] of 2 ± 0.1 s⁻¹ and a kcat/Km [8] of 220000 M⁻¹ s⁻¹. It also gave a Km [9] of 21.2 ± 2.4 µM, a kcat [9] of 4.8 ± 0.2 s⁻¹ and a kcat/Km [9] of 230000 M⁻¹ s⁻¹. The Km [10] was 7.7 ± 1.9 µM, the kcat [10] was 1.2 ± 0.1 s⁻¹ and the kcat/Km [10] was 160000 M⁻¹ s⁻¹. It also gave a Km [11] of 7.8 ± 2.1 µM, a kcat [11] of 7.5 ± 0.7 s⁻¹ and a kcat/Km [11] of 960000 M⁻¹ s⁻¹.
